Experimental data: patent US6670362B2, “Pyridazine endothelin antagonists” (Pfizer Inc., priority 2000, dated 2003)
pKi: −log10 of the molar value.

Legend:
[1] = biological target: T1, dog ETA receptor (Canis lupus familiaris, UniProt Q5KSU9); test: Dog ETA Binding Assay (125I-PD-151242, dog kidney homogenate)
T1 construct: 100 μg of purified dog kidney homogenate is added; from tissue; host or cells: dog kidney homogenate
T1 sequence (Q5KSU9 21-426): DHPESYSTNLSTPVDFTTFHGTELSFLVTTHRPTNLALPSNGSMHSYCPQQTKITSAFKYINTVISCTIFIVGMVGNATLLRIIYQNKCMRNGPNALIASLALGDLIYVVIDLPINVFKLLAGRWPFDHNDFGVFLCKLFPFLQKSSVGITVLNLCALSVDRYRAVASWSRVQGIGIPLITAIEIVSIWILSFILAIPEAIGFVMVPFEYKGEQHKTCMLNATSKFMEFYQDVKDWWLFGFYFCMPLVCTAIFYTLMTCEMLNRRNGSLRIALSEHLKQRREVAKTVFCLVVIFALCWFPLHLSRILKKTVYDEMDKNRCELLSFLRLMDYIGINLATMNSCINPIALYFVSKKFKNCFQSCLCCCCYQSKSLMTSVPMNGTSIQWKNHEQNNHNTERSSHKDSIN
Experimental: (§1) Competition between test substances and ligands binding to canine endothelin receptors is determined as follows: […] The solution is incubated at room temperature for 2 hours. After the incubation, the unbound ligand is separated from receptor bound ligand by filtration with a Brandel cell harvester, followed by 5 washes with buffer (Tris 50 mM, MgCl2 10 mM). Filter papers are counted for radioactivity and the Ki (an IC50 corrected for the dissociation constant and concentration of the ligand added) is determined for the concentration range tested.

[2] = biological target: T2, dog ETB (Canis lupus familiaris, UniProt P56497); test: Dog ETB Binding Assay (125I-IRL-1620, dog cerebellum homogenate)
T2 construct: 50 μg of purified Dog cerebellum homogenate is added; from tissue; host or cells: dog cerebellum homogenate
T2 sequence (P56497 27-442): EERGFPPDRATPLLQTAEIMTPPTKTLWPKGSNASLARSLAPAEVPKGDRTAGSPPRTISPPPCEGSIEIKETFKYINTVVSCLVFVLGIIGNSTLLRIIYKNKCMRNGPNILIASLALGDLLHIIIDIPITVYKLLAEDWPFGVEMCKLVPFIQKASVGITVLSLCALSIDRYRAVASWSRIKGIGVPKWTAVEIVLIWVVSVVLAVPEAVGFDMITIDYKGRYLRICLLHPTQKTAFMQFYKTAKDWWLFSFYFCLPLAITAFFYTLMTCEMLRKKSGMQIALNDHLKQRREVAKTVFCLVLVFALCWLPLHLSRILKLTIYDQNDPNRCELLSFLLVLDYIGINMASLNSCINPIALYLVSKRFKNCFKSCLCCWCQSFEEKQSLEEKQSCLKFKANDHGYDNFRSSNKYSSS
Experimental: as §1, with “30° C.” for “room temperature”, “90 minutes.” for “2 hours.”

[3] = test system: neointimal formation; conditions: S. Douglas et al., Circ. Res., 1994; cited from earlier work
[4] = test system: ETA/B receptor; conditions: hypertensive patients; H. Krum et al., 1998; cited from earlier work
[5] = biological target: T3, ETB receptors (Homo sapiens, UniProt P24530); conditions: in man; Hypertension, 1999, 33, 581-585; cited from earlier work
T3 construct: host or cells: man (in vivo)
T3 sequence (P24530 27-442): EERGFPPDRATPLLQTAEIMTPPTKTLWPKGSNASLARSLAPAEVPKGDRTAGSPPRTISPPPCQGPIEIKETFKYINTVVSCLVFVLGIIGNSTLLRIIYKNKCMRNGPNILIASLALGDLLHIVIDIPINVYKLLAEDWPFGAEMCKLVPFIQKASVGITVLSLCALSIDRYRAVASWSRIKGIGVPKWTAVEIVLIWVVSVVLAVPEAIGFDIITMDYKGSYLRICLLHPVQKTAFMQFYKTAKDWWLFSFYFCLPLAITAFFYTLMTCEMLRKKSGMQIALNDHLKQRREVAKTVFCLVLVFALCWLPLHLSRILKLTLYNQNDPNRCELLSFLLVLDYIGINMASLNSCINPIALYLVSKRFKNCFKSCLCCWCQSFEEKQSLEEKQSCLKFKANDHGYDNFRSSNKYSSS

## COc1ccccc1Oc1c(NS(=O)(=O)CCc2ccccc2)nc(-c2cccnn2)nc1OC [Example 5]
[1]
  pKi: 8.70
[2]
  pKi: 6.88

## CCCOc1ccc2c(c1)[C@@H](c1ccc(OC)cc1OCC(=O)O)[C@H](C(=O)O)[C@H]2c1ccc2c(c1)OCO2 [SB-209670]
[3]
  reduction in neointimal formation relative to control animals: 50%

## COc1ccccc1Oc1c(NS(=O)(=O)c2ccc(C(C)(C)C)cc2)nc(-c2ncccn2)nc1OCCO [Bosentan]
[4]
  blood pressure: decreased blood pressure

## CCCC[C@@H](NC(=O)[C@@H](Cc1cn(C(=O)OC)c2ccccc12)NC(=O)[C@H](CC(C)(C)C)NC(=O)N1[C@H](C)CCC[C@@H]1C)C(=O)O [BQ-788]
[5]
  peripheral resistance: increase peripheral resistance
